# Experimental data from patent US20030215817A1, “Modulation of gene expression in formation of fatty atherosclerotic lesions” (priority 2003, published 2003).
# Counter-ions that a name gives are not always drawn.
# Assays:
# Rec1_22 (TGGG 164) mRNA = experiment: quantified RT-PCR, Rec1_22; assay type: in vivo, rabbit; conditions: for Relative Abundance Rec1_22, 20 pg D: hypercholesterolemic plus lercanidipine R (−), eight weeks, H2 (normocholesterolemic)=1.0
# Method: (§1) Nineteen of the isolated DST clones were further validated using RT-PCR analyses; the data are presented in FIGS. 6-24 and in Tables 5-23, below. For each DST examined, the optimal annealing temperature and reagent conditions were determined for the corresponding set of primers (see Table 25) based on results from a preliminary experiment. In eight separate reactions, each set of primers was assayed to find the optimal conditions by adjusting the following four parameters: primer concentration, dNTP concentration, MgCl2 concentration, and number of Taq polymerase units. Once optimal conditions were determined, each DST was run in duplicate multiple simultaneous reactions which usually included at least four dilutions of template (cDNA library), plus control reactions lacking template, and six sequential data points for numbers of cycles.
# (§2) Reactions were performed using “Hot Start” PCR with the Clontech TaqStart antibody system (Cat. #5400-1). Each reaction contained 1 ml of the cDNA library dilution as template, determined amounts of AmpliTaq DNA polymerase (cat. #N808-0156), MgCl2, dNTPs (GibcoBRL cat. #10297-018), primer, and Clontech TaqStart Antibody in a 20 ml final reaction volume using 10×Taq buffer II (without MgCl2). Typically, a master mix containing all components except the template was prepared and aliquoted. Various templates were then added to these master mix samples and 20 ml volumes were subsequently dispensed into individual reaction tubes. At various times during the PCR run, tubes were removed sequentially on a predetermined schedule in order to quantitate expression of the target DST over a “window” of cycle times. After amplification, the samples were quantified via fluorimetry.
# (§3) PCR was performed at annealing temperatures that were five degrees above the average melting temperature of each primer pair. For primers greater than 10 bases (in a 0.05M salt solution), melting temperature was calculated using the following formula: Tm=59.9+41[% GC]−[675/Primer Length], where %GC is the decimal value. Following determination of the average melting temperature of the primer pair, the annealing temperature was determined by adding five degrees to the average melting temperature. PCR was performed using the following program: 1) 95 degrees Celsius, 3 minutes; 2) 95 degrees Celsius, 30 seconds; 3) TM+5 degrees Celsius, 30 seconds; 4) 72 degrees Celsius, for a time dependent on target length at 16 bp/second; 5) repeat steps 2-4 33 more cycles; 6) 72 degrees Celsius, 3 minutes; 7) 14 degrees Celsius, forever.
# (§4) Following temperature cycling, 2 ml of the PCR reaction was added to 140 ml of a 1:280 dilution of PicoGreen (Molecular Probes cat. #P-11495 (10×100 ml)) in TE pH 7.5 in a 96-well Costar UV microtiter plate (Fisher cat. #07-200623). The samples were mixed gently for 1.5 minutes and allowed to equilibrate at room temperature in the dark for 15 minutes. The concentration of the PCR products was quantified by fluorimetry using a PerSeptive Biosystems CytoFluor series 4000 multi-well plate reader.
# (§5) Background fluorescence was determined by using duplicate control samples that were cycled with all reaction components except the template. The mean value from these duplicate background control samples was subtracted from the corresponding experimental values prior to analyzing results. The sensitivity of the PicoGreen dsDNA assay is reported to be 250 pg/ml (50 pg dsDNA in a […] assay volume) using a fluorescence microplate reader such as was used in these measurements.
# FIG. 22 is a graphical representation of the results of RT-PCR using 20 pg of clone REC1—22 template, in which the amount of PCR product (measured in arbitrary fluorescence units) is plotted against number of cycles, where polyA enriched mRNA was extracted from aortas of rabbits that were normocholesterolemic (filled diamonds, “H2”) and hypercholesterolemic plus lercanidipine R (−), eight weeks (filled squares, “D”).
# REC1_16 (TCGG 195) mRNA = experiment: quantified RT-PCR, Rec1_16; assay type: in vivo, rabbit; conditions: for Relative Abundance Rec1_16, 20 pg F: hypercholesterolemic plus lercanidipine racemate, eight weeks, H2 (normocholesterolemic)=1.0
# Method: as §1, §2, §3, §4
# Background fluorescence was determined by using duplicate control samples that were cycled with all reaction components except the template. […] The sensitivity of the PicoGreen dsDNA assay is reported to be 250 pg/ml (50 pg dsDNA in a […] assay volume) using a fluorescence microplate reader such as was used in these measurements. […]
# Rec1_21 (TTCC 165) mRNA = experiment: quantified RT-PCR, Rec1_21; assay type: in vivo, rabbit; conditions: for Relative Abundance Rec1_21, 20 pg F: hypercholesterolemic plus lercanidipine racemate, eight weeks, H2 (normocholesterolemic)=1.0
# Method: as §1, §2, §3, §4, §5
# FIG. 20 is a graphical representation of the results of RT-PCR using 20 pg of clone REC1—21 template, in which the amount of PCR product (measured in arbitrary fluorescence units) is plotted against number of cycles, where polyA enriched mRNA was extracted from aortas or rabbits that were normocholesterolemic (filled diamonds, “H2”) and hypercholestrolemic plus lercanidipine racemate, eight weeks (filled squares, “F”).
# [1] = in vivo studies (Soma 1998); cited from earlier work
# Rec1_20 (TTAC 210) mRNA = experiment: quantified RT-PCR, Rec1_20; assay type: in vivo, rabbit; conditions: for Relative Abundance Rec1_20, 20 pg F: hypercholesterolemic plus lercanidipine racemate, eight weeks, H2 (normocholesterolemic)=1.0
# Method: as §1, §2, §3, §4
# as §5, with “measurements. […]” for “measurements.”
# [2] = in vivo studies (Soma 1998); cited from earlier work; remark: listed apart in the source
# LDL = conditions: Soma et al. 1998; cited from earlier work
# REC1_5 (AGTG 184) mRNA = experiment: quantified RT-PCR, Rec1_5; assay type: in vivo, rabbit; conditions: for Relative Abundance Rec1_5, 100 pg F: hypercholesterolemic plus lercanidipine racemate, eight weeks, H2 (normocholesterolemic)=1.0
# Method: as §1, §2, §3, §4
# as §5, with “measurements. […]” for “measurements.”
# [3] = system: cholesterol acyl transferase; conditions: Soma et al. 1998; cited from earlier work
# [4] = hypercholesterolemic animals receiving lercanidipine
smiles,measurement,setting,value
"COC(=O)C1=C(C)NC(C)=C(C(=O)OC(C)(C)CN(C)CCC(c2ccccc2)c2ccccc2)[C@@H]1c1cccc([N+](=O)[O-])c1.Cl (single isomer, unassigned) [(R)-lercanidipine]","Relative Abundance Rec1_22, 20 pg D",Rec1_22 (TGGG 164) mRNA; cycle 26,0.0
same,"Relative Abundance Rec1_22, 20 pg D",Rec1_22 (TGGG 164) mRNA; cycle 28,0.0
same,"Relative Abundance Rec1_22, 20 pg D",Rec1_22 (TGGG 164) mRNA; cycle 30,0.5
same,"Relative Abundance Rec1_22, 20 pg D",Rec1_22 (TGGG 164) mRNA; cycle 32,0.7
same,"Relative Abundance Rec1_22, 20 pg D",Rec1_22 (TGGG 164) mRNA; cycle 34,0.8
same,"expression of Rec1_22 at 8 weeks (RT-PCR study), in words",Rec1_22 (TGGG 164) mRNA; hypercholesterolemic animals receiving lercanidipine R (−) compared to normocholesterolemic animals,decreased
"COC(=O)C1=C(C)NC(C)=C(C(=O)OC(C)(C)CN(C)CCC(c2ccccc2)c2ccccc2)C1c1cccc([N+](=O)[O-])c1 (racemic) [lercanidipine, lercanidipine hydrochloride]","Relative Abundance Rec1_16, 20 pg F",REC1_16 (TCGG 195) mRNA; cycle 28,0.0
same,"Relative Abundance Rec1_16, 20 pg F",REC1_16 (TCGG 195) mRNA; cycle 30,0.2
same,"Relative Abundance Rec1_16, 20 pg F",REC1_16 (TCGG 195) mRNA; cycle 32,0.6
same,"Relative Abundance Rec1_16, 20 pg F",REC1_16 (TCGG 195) mRNA; cycle 34,0.3
same,"expression of Rec1_16 at 8 weeks (RT-PCR study), in words",REC1_16 (TCGG 195) mRNA; [4],decreased
same,"Relative Abundance Rec1_21, 20 pg F",Rec1_21 (TTCC 165) mRNA; cycle 24,0.0
same,"Relative Abundance Rec1_21, 20 pg F",Rec1_21 (TTCC 165) mRNA; cycle 26,0.0
same,"Relative Abundance Rec1_21, 20 pg F",Rec1_21 (TTCC 165) mRNA; cycle 28,0.0
same,"Relative Abundance Rec1_21, 20 pg F",Rec1_21 (TTCC 165) mRNA; cycle 30,0.1
same,"Relative Abundance Rec1_21, 20 pg F",Rec1_21 (TTCC 165) mRNA; cycle 32,0.1
same,"Relative Abundance Rec1_21, 20 pg F",Rec1_21 (TTCC 165) mRNA; cycle 34,0.3
same,"expression of Rec1_21 at 8 weeks (RT-PCR study), in words",Rec1_21 (TTCC 165) mRNA; [4],substantially decreased
same,carotid intimal hyperplasia,[1],inhibit
same,"Relative Abundance Rec1_20, 20 pg F",Rec1_20 (TTAC 210) mRNA; cycle 26,0.0
same,"Relative Abundance Rec1_20, 20 pg F",Rec1_20 (TTAC 210) mRNA; cycle 28,0.1
same,"Relative Abundance Rec1_20, 20 pg F",Rec1_20 (TTAC 210) mRNA; cycle 30,0.2
same,"Relative Abundance Rec1_20, 20 pg F",Rec1_20 (TTAC 210) mRNA; cycle 32,0.2
same,"Relative Abundance Rec1_20, 20 pg F",Rec1_20 (TTAC 210) mRNA; cycle 34,0.2
same,"expression of Rec1_20 at 8 weeks (RT-PCR study), in words",Rec1_20 (TTAC 210) mRNA; [4],decreased
same,aortic fatty lesion deposition,[2],inhibit
same,antioxidant for LDL in endothelial cell-mediated oxidation,LDL,act as an antioxidant
same,"Relative Abundance Rec1_5, 100 pg F",REC1_5 (AGTG 184) mRNA; cycle 24,512.5
same,"Relative Abundance Rec1_5, 100 pg F",REC1_5 (AGTG 184) mRNA; cycle 26,805.0
same,"Relative Abundance Rec1_5, 100 pg F",REC1_5 (AGTG 184) mRNA; cycle 28,0.2
same,"Relative Abundance Rec1_5, 100 pg F",REC1_5 (AGTG 184) mRNA; cycle 30,0.6
same,"Relative Abundance Rec1_5, 100 pg F",REC1_5 (AGTG 184) mRNA; cycle 32,1.1
same,"Relative Abundance Rec1_5, 100 pg F",REC1_5 (AGTG 184) mRNA; cycle 34,1.0
same,"expression of Rec1_5 at 8 weeks (RT-PCR study), in words","REC1_5 (AGTG 184) mRNA; hypercholesterolemic animals receiving lercanidipine racemate, at 28-30 cycles",decreased
same,cholesterol acyl transferase activity,[3],modulate
